Reference: ChEMBL document CHEMBL3259549, “Unraveling the structure-activity relationship of tomatidine, a steroid alkaloid with unique antibiotic properties against persistent forms of Staphylococcus aureus” (2014)
Values after ≈ are worked out from the molar mass of the structure shown.

Tests used:
Staphylococcus aureus [1] = assay: Antimicrobial activity against hemB-deficient Staphylococcus aureus Newbould after 48 hrs by broth microdilution method; assay type: functional
Staphylococcus aureus [2] = assay: microbe, parasite or virus in culture; details: ATCC 29213, 48 h
Description: Antimicrobial activity against Staphylococcus aureus ATCC 29213 after 48 hrs by broth microdilution method

Staphylococcus aureus [3] = assay: MIC fold reduction, ratio of gentamicin MIC for Staphylococcus aureus ATCC 29213 to gentamicin MIC for Staphylococcus aureus ATCC 29213 in presence of compound

Row | Compound | MIC (Staphylococcus aureus [1]) [µg/mL] | MIC (Staphylococcus aureus [2]) [µg/mL] | gentamicin MIC fold reduction (Staphylococcus aureus [3])
1 | CC(C)CCNC(C)[C@H]1CC[C@H]2[C@@H]3CC[C@H]4C[C@@H](O)CC[C@]4(C)[C@H]3CC[C@]12C.Cl (some centres undefined) | > 8 | > 64 | 4
2 | C[C@H]1CC[C@]2(NC1)O[C@H]1C[C@H]3[C@@H]4CC[C@H]5CC(NCCN)CC[C@]5(C)[C@H]4CC[C@]3(C)[C@H]1[C@@H]2C.Cl.Cl.Cl (some centres undefined) | 0.5 | 8 | 4
3 | CN(C)CC(=O)[C@H]1CC[C@H]2[C@@H]3CC[C@H]4C[C@@H](O)CC[C@]4(C)[C@H]3CC[C@]12C | > 8 | > 64 | 2
4 | CC(N)[C@H]1CC[C@H]2[C@@H]3CC[C@H]4C[C@@H](O)CC[C@]4(C)[C@H]3CC[C@]12C.Cl (some centres undefined) | > 8 | 64 | 2
5 | C[C@H]1CC[C@]2(NC1)O[C@H]1C[C@H]3[C@@H]4CC[C@H]5CC(N)CC[C@]5(C)[C@H]4CC[C@]3(C)[C@H]1[C@@H]2C.Cl.Cl (some centres undefined) | 1 | 32 | 8
6 | CC(=O)NC[C@@H](C)CCC1=C(C)[C@H]2[C@H](C[C@H]3[C@@H]4CC[C@H]5C[C@@H](O)CC[C@]5(C)[C@H]4CC[C@@]32C)O1 | > 8 | > 64 | 1
7 | C[C@H]1CC[C@]2(NC1)O[C@H]1C[C@H]3[C@@H]4CC[C@H]5C[C@H](O)CC[C@]5(C)[C@H]4CC[C@]3(C)[C@H]1[C@@H]2C.Cl | 4 | > 64 | 4
8 | C[C@H]1CC[C@]2(NC1)O[C@H]1C[C@H]3[C@@H]4CC[C@H]5CC(NCCCCCCN)CC[C@]5(C)[C@H]4CC[C@]3(C)[C@H]1[C@@H]2C.Cl.Cl.Cl (some centres undefined) | 1 | 32 | 2
9 | CC(NCCCN)[C@H]1CC[C@H]2[C@@H]3CC[C@H]4C[C@@H](O)CC[C@]4(C)[C@H]3CC[C@]12C.Cl.Cl (some centres undefined) | > 8 | 32 | 2
10 | C[C@H]1CC[C@]2(NC1)O[C@H]1C[C@H]3[C@@H]4CC[C@H]5C[C@@H](O)CC[C@]5(C)[C@H]4CC[C@]3(C)[C@H]1[C@@H]2C [TOMATIDINE] | 0.12 (≈ 0.289 µM) | – | –
11 | CCCCNC(C)[C@H]1[C@@H](O)C[C@H]2[C@@H]3CC[C@H]4C[C@@H](O)CC[C@]4(C)[C@H]3CC[C@@]21C.Cl (some centres undefined) | > 8 | > 64 | 2
12 | C[C@H]1CC[C@]2(NC1)O[C@H]1C[C@H]3[C@@H]4CC[C@H]5C[C@@H](O)CC[C@]5(C)[C@H]4CC[C@]3(C)[C@H]1[C@@H]2C.Cl | 0.06 | > 64 | 8
13 | CC(NCCCN(C)C)[C@H]1[C@@H](O)C[C@H]2[C@@H]3CC[C@H]4C[C@@H](O)CC[C@]4(C)[C@H]3CC[C@@]21C (some centres undefined) | > 8 | > 64 | 2
14 | C[C@]12CC[C@H](O)C[C@@H]1CC[C@@H]1[C@@H]2CC[C@]2(C)[C@@H](C(=O)CN3CCCCC3)CC[C@@H]12 | > 8 | > 64 | 2
15 | C=CCO[C@H]1CC[C@@]2(C)[C@@H](CC[C@@H]3[C@@H]2CC[C@]2(C)[C@@H]4[C@H](C[C@@H]32)O[C@@]2(CC[C@H](C)CN2)[C@H]4C)C1.Cl | 0.25 | 16 | 8
16 | CC(=O)NC[C@@H](C)CCC1O[C@H]2C[C@H]3[C@@H]4CC[C@H]5C[C@@H](O)CC[C@]5(C)[C@H]4CC[C@]3(C)[C@H]2[C@@H]1C (some centres undefined) | > 8 | > 64 | 1
17 | CC(=O)NC[C@@H](C)CCC(O)[C@@H](C)[C@H]1[C@@H](O)C[C@H]2[C@@H]3CC[C@H]4C[C@@H](O)CC[C@]4(C)[C@H]3CC[C@]12C (some centres undefined) | > 8 | > 64 | 1
18 | CCCCNC(C)[C@H]1CC[C@H]2[C@@H]3CC[C@H]4C[C@@H](O)CC[C@]4(C)[C@H]3CC[C@]12C.Cl (some centres undefined) | 4 | 64 | 8
19 | C[C@H]1CC[C@]2(NC1)O[C@H]1C[C@H]3[C@@H]4CC[C@H]5CC(=O)CC[C@]5(C)[C@H]4CC[C@]3(C)[C@H]1[C@@H]2C.Cl | 0.25 | > 64 | 8
20 | C[C@H]1CC[C@@]2(O[C@H]3C[C@H]4[C@@H]5CC[C@H]6C[C@@H](O)CC[C@]6(C)[C@H]5CC[C@]4(C)[C@H]3[C@@H]2C)N(C=O)C1 | > 8 | > 64 | 2
21 | CC(NCCN)[C@H]1CC[C@H]2[C@@H]3CC[C@H]4C[C@@H](O)CC[C@]4(C)[C@H]3CC[C@]12C.Cl.Cl (some centres undefined) | > 8 | 32 | 2
22 | GENTAMICIN | 0.03 | – | –
23 | C[C@@H]1CC[C@@]2(NC1)O[C@H]1C[C@H]3[C@@H]4CC[C@H]5C[C@@H](O)CC[C@]5(C)[C@H]4CC[C@]3(C)[C@H]1[C@@H]2C | > 8 | > 64 | 1
24 | C[C@H]1CC[C@]2(NC1)O[C@H]1C[C@H]3[C@@H]4CC[C@H]5CC(NCCCCN)CC[C@]5(C)[C@H]4CC[C@]3(C)[C@H]1[C@@H]2C.Cl.Cl.Cl (some centres undefined) | 0.5 | 16 | 4
25 | C[C@H]1CCC([C@@H](C)[C@H]2[C@@H](O)C[C@H]3[C@@H]4CC[C@H]5C[C@@H](O)CC[C@]5(C)[C@H]4CC[C@]23C)NC1.Cl (some centres undefined) | 4 | 32 | 4
26 | CC(NCCCCN)[C@H]1CC[C@H]2[C@@H]3CC[C@H]4C[C@@H](O)CC[C@]4(C)[C@H]3CC[C@]12C.Cl.Cl (some centres undefined) | > 8 | 32 | 2
